# The source made the active and inactive calls. No rule for the calls is given here.
# System: Jurkat cell viability, ATP luminescence
# Experiment: viability loss in human Jurkat cells – cell-based, luminescence, round 3, cytotoxicity control for T. brucei MetRS inhibitor project, late-stage follow-up (AID 1053130)
row,Structure (SMILES),IC50
1,CCN(CC)C(=O)C(=O)c1cn(CC(=O)Nc2cc(Oc3ccccc3)cc(C(F)(F)F)c2)c2ccccc12,21 µM (inactive)
2,Nc1c(Cl)ncnc1Nc1ccc(C(=O)O)cc1,> 83.3 µM (inactive)
3,CCN(CC)C(=O)C(=O)c1cn(CCNc2cc(Oc3ccccc3)cc(C(F)(F)F)c2)c2ccccc12,34.8 µM (inactive)
4,CCN(CC)C(=O)C(=O)c1cn(CC(=O)Nc2cccc(C(F)(F)F)c2)c2ccccc12,57.2 µM (inactive)
5,O=C(Cn1cc(C(=O)C(=O)NCc2ccccc2)c2ccccc21)Nc1cc(Oc2ccccc2)cc(C(F)(F)F)c1,63.9 µM (inactive)
6,O=C(Cc1ccc(Nc2nc3ccc(Br)cc3[nH]2)cc1)NCCc1cccs1,> 27.8 µM (inactive)
7,CCN(CC)C(=O)C(=O)c1cn(CC(=O)Nc2cc(Oc3ccc(OC)cc3)cc(C(F)(F)F)c2)c2ccccc12,11.3 µM (inactive)
8,CCN(CC)C(=O)C(=O)c1cn(CC(=O)Nc2cc(Oc3ccccc3OC)cc(C(F)(F)F)c2)c2ccccc12,> 83.3 µM (inactive)
9,CCN(CC)C(=O)C(=O)c1cn(CCNc2cccc(C(F)(F)F)c2)c2ccccc12,41.1 µM (inactive)
10,CCN(CC)C(=O)C(=O)c1cn(CC(=O)Nc2cc(Oc3ccccc3F)cc(C(F)(F)F)c2)c2ccccc12,> 83.3 µM (inactive)
11,CCN(CC)C(=O)C(=O)c1cn(CC(=O)Nc2cc(Oc3ccc(F)cc3)cc(C(F)(F)F)c2)c2ccccc12,50.1 µM (inactive)
12,CCN(CC)C(=O)Cc1cn(CC(=O)Nc2cccc(C(F)(F)F)c2)c2ccccc12,> 83.3 µM (inactive)

# Reference: PubChem BioAssay AID1053130 (The Scripps Research Institute Molecular Screening Center, 2014)
